According to patent US7605185B2, “Treatment of arrhythmia by retinoids affecting signal transduction” (priority 1999, dated 2009):

How the values were obtained:
[1] = test system: cardiac conductance cells and cardiac neurons; assay: TUNEL apoptosis staining with connexin37/40 or neuron-specific enolase counterstain, confocal microscopy; type: in vivo, mouse
Method: (§1) 1 week old litters of C57/b mice (around 3 g body weight) were divided into groups of five to 10 animals, to be treated with all-trans-RA in carrier, 9cis-RA in carrier, or carrier (canola oil, Sigma). Every treatment group was assigned to one nursing mother. Groups larger than 10 pups were avoided, to exclude limited feeding frequency as experimental variable. A retinoid preparation for gavage was formulated such that every animal received a maximum of 150 μl volume containing 40 mg/kg all-trans RA in carrier, 12 mg/kg or 20 mg/kg 9cis-RA in carrier, or carrier alone. DMSO or ethanol content was limited to 0.1%. Pups were gavage-fed from a tuberculin syringe connected with a bent vein catheter. The strong suckling reflex facilitated delivery of the viscous and odorous formulation. Depending on the territorial protection behaviour of the mother, pups were briefly rolled in cage stray after gavage to prevent triggering maternal infanticide behaviour through unusual smell of the pups. For two hours after gavage, pups were carefully monitored to prevent maternal infanticide. Every 24 h, the weight was recorded.
(§2) For uptake kinetics, pairs of treated pups were sacrificed by decapitation after 1 h, 2 h, 4 h, 8 h, 16 h, 24 h, 36 h and 72 h. Organs were removed under the dissection microscope and frozen in liquid nitrogen. Hearts were dissected under the surgical dissection microscope; tissues were divided into atria, ventricles, and enriched in conductance system (a tissue preparation containing the ventricular septa with the Purkinje fibers and the atrial region between the aorta and the pulmonal artery (outflow tract) with the sinus node). For immunohistology, pups were sacrificed after 72 h, hearts were rinsed in PBS, weighed and fixed in 4% para-formaldehyde in PBS before embedding in OCT for standard cryostat procedures. If pups were on the brink of death (typically between 36 and 72 h after gavage), they were sacrificed, and hearts were collected for confocal microscopy or HPLC.
For confocal microscopy, cryostat sections were first stained for apoptotic DNA strand breaks according to the TUNEL protocol (using the commercially available Apoptag™ kit, Oncor Inc., Gaithersburg Md.) and counterstained with rabbit anti-connexin37 antibody or rabbit anti-connexin40 antibody for conductance cells, or with rabbit anti-myosin antibody for cardiac myocytes. Immunodetection of connexin isoforms 40 and 43 has been established as a useful method to detect cells of the cardiac conductance system in rodents (Gourdie et al., The spatial distribution and relative abundance of gap-junctional connexin40 and connexin43 correlate to functional properties of components of the cardiac atrioventricular conducting system, J. Cell Science 105 (Pt 4) 985-991, 1993); because of the relatively weak signal of connexin40, the connexin isoform 37 can be used as equivalent marker for the conductance system in the mouse model (Willecke K et al, 1991; Willecke K, personal communication). The combination of rabbit anti-Neuron-specific enolase with propidium iodide followed published procedures (Current Protocols in Molecular Biology) and was used to identify cardiac neurons with advanced apoptotic condensation of nuclei. Procedures of immunohistology and image analysis are further described in detail in Graupner, WO 00/53236.

[2] = test system: IGFBP5; assay: Confocal immunohistology of IGF pathway proteins in cardiac cell types; type: in vivo, mouse; conditions: after treatment, dose not stated
Method: as §1, with “The strong suckling reflex facilitated delivery of the viscous and odorous formulation. Depending on the territorial protection behaviour of the mother, pups were briefly rolled in cage stray after gavage to prevent triggering maternal infanticide behaviour through unusual smell of the pups.” left out, “recorded. […]” for “recorded.”
The mechanism of apoptosis was investigated using commercially available primary antibodies of highest purity, at dilutions recommended by the manufacturer, against IGF-1, IGF-II, the entire set of IGFbinding proteins (IGFBP1-5), IGF-R, mitochondrial Mn-dependent superoxide dismutase Mn-SOD, and cytoplasmic Cu/Zn-dependent superoxide dismutase Cu/Zn-SOD. […] Confocal images were captured and processed for quantitative analysis by Zeiss LSM-300 software. […] At least five independent regions of similar size were analyzed per tissue type and retinoid treatment condition. […]

[3] = Death of mouse pups after gavage; type: in vivo; conditions: nonmutagenic amounts
Method: as §1
(§3) For uptake kinetics, pairs of treated pups were sacrificed by decapitation after 1 h, 2 h, 4 h, 8 h, 16 h, 24 h, 36 h and 72 h. Organs were removed under the dissection microscope and frozen in liquid nitrogen. […]

[4] = test system: endogenous peroxidase activity; assay: Gas release from heart tissue sections on addition of H2O2; type: in vivo, mouse; conditions: 20 mg/kg
Method: as §1, with “The strong suckling reflex facilitated delivery of the viscous and odorous formulation. Depending on the territorial protection behaviour of the mother, pups were briefly rolled in cage stray after gavage to prevent triggering maternal infanticide behaviour through unusual smell of the pups.” left out
Another observation with significant ramifications is the substantial activation of pathways metabolizing reactive oxygen species in cardiac tissue after administration of 20 mg/kg of 9cis-RA. […] Second, very high upregulation of MnSOD protein signal was detected in connexin-positive cells of the cardiac outflow tract; the signal of 3.4 fold upregulation localizes to the region of the atrium surrounding the sino-atrial node; the signal of 11 fold upregulation localizes most likely to the area of the sino-atrial node proper. […]

[5] = test system: cardiac myocytes; assay: TUNEL apoptosis staining with anti-myosin counterstain, confocal microscopy; type: in vivo, mouse
From the text: as §1, with “A retinoid preparation for gavage was formulated such that every animal received a maximum of 150 μl volume containing 40 mg/kg all-trans RA in carrier, 12 mg/kg or 20 mg/kg 9cis-RA in carrier, or carrier alone.” left out
as §3

[6] = test system: mitochondrial Mn-dependent superoxide dismutase Mn-SOD; assay: Quantitative confocal immunohistology of Mn-SOD protein signal in cardiac outflow tract; type: in vivo, mouse; conditions: 20 mg/kg; for upregulation of MnSOD protein signal: connexin-positive cells
Method: as §1, with “recorded. […]” for “recorded.”
The mechanism of apoptosis was investigated using commercially available primary antibodies of highest purity, at dilutions recommended by the manufacturer, against IGF-1, IGF-II, the entire set of IGFbinding proteins (IGFBP1-5), IGF-R, mitochondrial Mn-dependent superoxide dismutase Mn-SOD, and cytoplasmic Cu/Zn-dependent superoxide dismutase Cu/Zn-SOD. […] Confocal images were captured and processed for quantitative analysis by Zeiss LSM-300 software. Briefly, the pixel intensities per unit area amounting to channel background were determined for each antibody/seconday antibody combination and subtracted from the experimental pixel intensities. […] At least five independent regions of similar size were analyzed per tissue type and retinoid treatment condition. Averaged pixel intensities per unit area upon 9cis retinoid induction were expressed as multiples of averaged pixel intensities per unit area in the absence of 9cis retinoid induction (fold induction +/−s.e.m.)

[7] = test system: mouse heart (cardiomyocytes); assay: Perinatal mouse heart model: cardiac growth, heart size and weight after retinoid gavage; type: in vivo
Method: as §1, §2

[8] = higher amounts, 20 mg/kg and higher, mice
[9] = in vivo administration to mice, dose not stated

CC1=C(/C=C/C(C)=C\C=C\C(C)=C\C(=O)O)C(C)(C)CCC1 [9cis-RA, 9-cis retinoic acid]
apoptosis in cardiac conductance cells of perinatal mouse heart (FIG. 3, confocal micrographs) ([1]; 20 mg/kg): colocalization of apoptosis in cardiac conductance cells | correlation between apoptosis and conductance cell phenotype ([1]; 20 mg/kg): strong correlation | effect on apoptosis ([1]; 40 mg/kg): pro-apoptotic effect | apoptosis of cardiac neurons and cardiac pacemaker cells [1, 8]: apoptosis of cardiac neurons and cardiac pacemaker cells | apoptosis in cardiac neurons and cardiac conductance system [1, 9]: apoptosis in cardiac neurons and cells of the cardiac conductance system | correlation between apoptosis and conductance cell type ([1]; less than 10 mg/kg): no correlation | IGFBP5 expression in cardiac myocytes [2]: moderately upregulated | death of mouse pups after gavage [3]: sudden death of mouse pups | gas bubbles released from myocardial cells on H2O2 addition (endogenous peroxidase activity) [4]: remarkable amounts of gas bubbles were released | colocalization of TUNEL signal in cardiac myocytes ([5]; 20 mg/kg): No colocalization of TUNEL signal | colocalization of TUNEL signal in cardiac myocytes ([5]; less than 10 mg/kg): No colocalization of TUNEL signal | immunoreactive Mn-SOD in mitochondria of cells in the cardiac outflow tract (FIG. 4) ([6]; versus carrier): upregulation | upregulation of MnSOD protein signal ([6]; most likely area of the sino-atrial node proper): 11 fold | upregulation of MnSOD protein signal ([6]; region of the atrium surrounding the sino-atrial node): 3.4 fold | effect on growth (growth factor-dependent pathway) ([7]; 10 mg/kg): growth-inhibitory effect | size of the average myocardial myocyte ([7]; 20 mg/kg or less than 10 mg/kg): reduced | myocardial growth stunting ([7]; around 10 mg/kg): approached complete growth arrest | growth of cardiomyocytes [7, 8]: reduced growth of cardiomyocytes | growth of cardiomyocytes [7, 9]: reduced growth of cardiomyocytes | cell growth in heart ([7]; moderate amounts, 3-10 mg/kg, mice): reduced growth of cardiomyocytes, cardiac neurons, and cells of the cardiac conductance system

CC1=C(/C=C/C(C)=C/C=C/C(C)=C/C(=O)O)C(C)(C)CCC1 [all-trans-RA, all-trans retinoic acid]
correlation between apoptosis and conductance cell type ([1]; 40 mg/kg): no correlation | myocardial growth reduction ([7]; 40 mg/kg): less than 30%
